Where two headings read alike, the source gives them in different places.
Tests used:
KRas G12D mutant = molecular target: T1, KRas G12D mutant (Homo sapiens, UniProt P01116, G12D); assay: Ras GTP binding domain inhibition assay (labeled-GTP competition, cell-free)
T1 construct: made in house
Summary of the method: (§1)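 First, the His-tagged protein was captured overnight at 4° C on nickel wells. Second, compound was applied at 20 μM or as a dilution series for IC50 over 3 h. Third, 100 nM Cy3- or Cy5-GTP was added for 45 min. Finally, wells were washed and bound label quantified.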

KRas G12C mutant = molecular target: T2, KRas G12C mutant (Homo sapiens, UniProt P01116, G12C); assay: as above
T2 construct: made in house
Summary of the method: as §1

KRas Q61H mutant = molecular target: T3, KRas Q61H mutant (Homo sapiens, UniProt P01116, Q61H); assay: as above
T3 construct: made in house
Summary of the method: as §1

[1] = tested on: Akt phosphorylation in Panc-1 cells; assay: Western AKT cell-based phosphorylation assay; set-up: species or system human; conditions: at 10 μM, values in brackets < > are activation %, not inhibition
Summary of the method: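 Panc-1 cells starved overnight in 0.5% FBS, exposed to compound at 10 μM (0.3% DMSO) for 6 h at 37° C, then stimulated with 1.5 ng/ml EGF for 15 min. Lysates probed by western blot with anti-phospho-Akt (Ser473), equal protein loading checked by Ponceau S.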

Rac-1 = Rac-1 (Homo sapiens, UniProt P63000); assay: Ras GTP binding domain inhibition assay (labeled-GTP competition, cell-free); set-up: made in house
Summary of the method: as §1

KRas wild type = KRas wild type (Homo sapiens, UniProt P01116); assay: as above; set-up: made in house
Summary of the method: as §1

Rho-A = Rho-A (Homo sapiens, UniProt P61586); assay: as above; set-up: made in house
Summary of the method: as §1

[2] = with SOS, read-out: KRas G12D mutant + SOS: % inh.
[3] = without SOS, read-out: KRas G12D mutant: % inh.
[4] = with SOS, read-out: KRas G12C mutant + SOS: % inh.
[5] = without SOS, read-out: KRas G12C mutant: % inh.
[6] = with SOS, read-out: KRas Q61H mutant + SOS: % inh.
[7] = without SOS, read-out: KRas Q61H mutant: % inh.
[8] = with SOS, read-out: Rac-1 + SOS: % inh.
[9] = without SOS, read-out: Rac-1: % inh.
[10] = with SOS, read-out: KRas wild type + SOS: % inh.
[11] = without SOS, read-out: KRas wild type: % inh.
[12] = with SOS, read-out: Rho-A + SOS: % inh.
[13] = without SOS, read-out: Rho-A: % inh.

| Compound | inhibition at 20 µM (KRas G12D mutant; [2]) | inhibition at 20 µM (KRas G12D mutant; [3]) | inhibition at 20 µM (KRas G12C mutant; [4]) | inhibition at 20 µM (KRas G12C mutant; [5]) | inhibition at 20 µM (KRas Q61H mutant; [6]) | inhibition at 20 µM (KRas Q61H mutant; [7]) | IC50 (KRas Q61H mutant; with SOS) | % inh of AKT phosphorylation in PANC-1 [1] | inhibition at 20 µM (Rac-1; [8]) | inhibition at 20 µM (Rac-1; [9]) | inhibition at 20 µM (KRas wild type; [10]) | inhibition at 20 µM (KRas wild type; [11]) | inhibition at 20 µM (Rho-A; [12]) | inhibition at 20 µM (Rho-A; [13]) |
| --- | --- | --- | --- | --- | --- | --- | --- | --- | --- | --- | --- | --- | --- | --- |
| NC(=O)c1nc(O)c2scc(-c3ccccn3)c2n1 [Compound 18, 4-Hydroxy-7-(pyridin-2-yl)thieno[3,2-d]pyrimidine-2-carboxamide] | 26 to 50% | 51 to 75% | 26 to 50% | 26 to 50% | 26 to 50% | 26 to 50% | > 10 µM | 0 (0% inhibition) | 26 to 50% | 26 to 50% | 1 to 25% | 26 to 50% | 26 to 50% | 26 to 50% |
| O=C(c1nc(O)c2scc(-c3ccccn3)c2n1)N1CCCC1 [Compound 19, (4-Hydroxy-7-(pyridin-2-yl)thieno[3,2-d]pyrimidin-2-yl)(pyrrolidin-1-yl)methanone] | 1 to 25% | 26 to 50% | 1 to 25% | 1 to 25% | 1 to 25% | 1 to 25% | > 10 µM | 0 (0% inhibition) | 1 to 25% | 1 to 25% | 1 to 25% | 1 to 25% | 26 to 50% | 26 to 50% |
| CC(C)NC(=O)c1nc(O)c2scc(-c3ccccn3)c2n1 [Compound 20, 4-Hydroxy-N-isopropyl-7-(pyridin-2-yl)thieno[3,2-d]pyrimidine-2-carboxamide] | 26 to 50% | 26 to 50% | 26 to 50% | 51 to 75% | 26 to 50% | 26 to 50% | > 10 µM | 0 (0% inhibition) | 26 to 50% | 26 to 50% | 1 to 25% | 51 to 75% | 26 to 50% | 26 to 50% |
| COCCNC(=O)c1nc(O)c2scc(-c3ccccn3)c2n1 [Compound 21, 4-Hydroxy-N-(2-methoxyethyl)-7-(pyridin-2-yl)thieno[3,2-d]pyrimidine-2-carboxamide] | 26 to 50% | 26 to 50% | 26 to 50% | 26 to 50% | 26 to 50% | 26 to 50% | > 10 µM | 0 (0% inhibition) | 26 to 50% | 26 to 50% | 1 to 25% | 26 to 50% | 26 to 50% | 51 to 75% |
| O=C(c1nc(O)c2scc(-c3ccccn3)c2n1)N1CCOCC1 [Compound 22, (4-Hydroxy-7-(pyridin-2-yl)thieno[3,2-d]pyrimidin-2-yl)(morpholino)methanone] | 0% | 1 to 25% | 0% | 1 to 25% | 1 to 25% | 1 to 25% | > 10 µM | 0 (0% inhibition) | 1 to 25% | 1 to 25% | 1 to 25% | 1 to 25% | 1 to 25% | 1 to 25% |
| O=C(Nc1ccccc1)c1nc(O)c2scc(-c3ccccn3)c2n1 [Compound 23, 4-Hydroxy-N-phenyl-7-(pyridin-2-yl)thieno[3,2-d]pyrimidine-2-carboxamide] | 1 to 25% | 1 to 25% | 0% | 1 to 25% | 1 to 25% | 0% | > 10 µM | 0 (0% inhibition) | 1 to 25% | 1 to 25% | 1 to 25% | 1 to 25% | 1 to 25% | 1 to 25% |
| O=C(Nc1ccccn1)c1nc(O)c2scc(-c3ccccn3)c2n1 [Compound 24, 4-Hydroxy-N,7-di(pyridin-2-yl)thieno[3,2-d]pyrimidine-2-carboxamide] | 0% | 1 to 25% | 1 to 25% | 1 to 25% | 0% | 1 to 25% | > 10 µM | 0 (0% inhibition) | 1 to 25% | 0% | 1 to 25% | 1 to 25% | 1 to 25% | 1 to 25% |
| Cc1sc2c(O)nc(-c3ccccn3)nc2c1-c1ccccn1 [Compound 26, 6-Methyl-2,7-di(pyridin-2-yl)thieno[3,2-d]pyrimidin-4-ol] | 76 to 100% | 76 to 100% | 76 to 100% | 76 to 100% | 76 to 100% | 76 to 100% | 5 to 10 µM | 0 (0% inhibition) | 76 to 100% | 76 to 100% | 51 to 75% | 76 to 100% | 76 to 100% | 76 to 100% |
| Cn1ccnc1-c1nc(O)c2scc(-c3ncccc3F)c2n1 [Compound 30, 7-(3-Fluoropyridin-2-yl)-2-(1-methyl-1H-imidazol-2-yl)thieno[3,2-d]pyrimidin-4-ol] | 51 to 75% | 51 to 75% | 76 to 100% | 51 to 75% | 76 to 100% | 51 to 75% | 1 to 4.99 µM | 0 (0% inhibition) | 51 to 75% | 51 to 75% | 76 to 100% | 76 to 100% | 76 to 100% | 76 to 100% |
| CO[C@@H]1CC[C@H](Nc2nc(-c3nccn3C)nc3sc(-c4ccn(C(C)C)n4)c(C)c23)C1 [Compound 31, 6-(1-Isopropyl-1H-pyrazol-3-yl)-N-((1S,3R)-3-methoxycyclopentyl)-5-methyl-2-(1-methyl-1H-imidazol-2-yl)thieno[2,3-d]pyrimidin-4-amine] | 76 to 100% | 26 to 50% | 76 to 100% | 51 to 75% | 76 to 100% | 26 to 50% | 1 to 4.99 µM | 0 (0% inhibition) | 26 to 50% | – | 76 to 100% | 26 to 50% | 51 to 75% | 51 to 75% |

Reference: patent US20230227466A1, “SUBSTITUTED THIENOPYRIMIDINES THAT INTERACT WITH THE RAS SUPERFAMILY FOR THE TREATMENT OF CANCERS, INFLAMMATORY DISEASES, RASOPATHIES, AND FIBROTIC DISEASE” (SHY Therapeutics, LLC, priority 2020, published 2023)
